ChEMBL document CHEMBL3808342, “Discovery and optimization of a novel series of highly CNS penetrant M4 PAMs based on a 5,6-dimethyl-4-(piperidin-1-yl)thieno[2,3-d]pyrimidine core” (Bioorg Med Chem Lett, 2016)

How the values were obtained:
[1] = Ratio of brain to plasma partition coefficient in Sprague-Dawley rat at 0.2 to 0.25 mg/kg, iv administered as cassette dose after 0.25 hrs; assay type: ADME, organism-based; conditions: for Kp: brain, 0.25 h; for Kp at 0.25 h: Sprague-Dawley, brain and plasma
[2] = Ratio of unbound brain-to-plasma concentration in Sprague-Dawley rat at 0.2 to 0.25 mg/kg, iv administered as cassette dose after 0.25 hrs; assay type: ADME, organism-based
[3] = target: T1, Muscarinic acetylcholine receptor M4 (Homo sapiens, UniProt P08173); assay: Positive allosteric modulation of human M4 receptor expressed in CHO cells coexpressing Gqi5 by calcium mobilization assay; assay type: functional, cell-based; conditions: read-out: EC50
T1 sequence (P08173 whole entry): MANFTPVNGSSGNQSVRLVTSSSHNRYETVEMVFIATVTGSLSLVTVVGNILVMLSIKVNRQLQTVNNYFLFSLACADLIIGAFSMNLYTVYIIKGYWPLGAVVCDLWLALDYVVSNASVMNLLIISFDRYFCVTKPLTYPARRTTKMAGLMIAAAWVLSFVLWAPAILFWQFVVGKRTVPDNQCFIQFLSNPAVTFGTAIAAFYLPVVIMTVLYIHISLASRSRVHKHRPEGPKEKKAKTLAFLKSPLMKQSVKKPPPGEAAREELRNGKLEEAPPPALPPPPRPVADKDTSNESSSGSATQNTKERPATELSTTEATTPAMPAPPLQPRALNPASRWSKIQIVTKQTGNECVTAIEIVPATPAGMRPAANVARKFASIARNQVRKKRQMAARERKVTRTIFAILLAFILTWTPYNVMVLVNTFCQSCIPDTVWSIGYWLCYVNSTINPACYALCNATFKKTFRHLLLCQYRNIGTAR

[4] = target: T2, Muscarinic acetylcholine receptor M4 (Homo sapiens) (UniProt P08173); assay: Positive allosteric modulation of human M4 receptor expressed in CHO cells coexpressing Gqi5 by calcium mobilization assay relative to acetylcholine; assay type: functional, cell-based
T2 sequence (whole entry): T1 sequence (P08173 whole entry)

[5] = Drug metabolism in human hepatic microsomes assessed as compound oxidation; assay type: ADME, Liver, Microsome
[6] = Drug metabolism in rat hepatic microsomes assessed as hydroxylation of 5,6-dimethyl moiety; assay type: ADME, Liver, Microsome
[7] = Fraction unbound in human plasma; assay type: ADME, cell-free
[8] = test system: Plasma; assay: (§1) Fraction unbound in rat plasma; assay type: ADME, cell-free
[9] = target: T1, Muscarinic acetylcholine receptor M4; assay: Antagonist activity at human M4 receptor expressed in CHO cells coexpressing Gqi5 by calcium mobilization assay; assay type: functional, cell-based
[10] = target: T2, Muscarinic acetylcholine receptor M4 (Homo sapiens); assay: Antagonist activity at human M4 receptor expressed in CHO cells coexpressing Gqi5 assessed as acetylcholine-induced calcium mobilization; assay type: functional, cell-based; design: scale not given: the % may be the effect or the level left
[11] = as §1; assay type: ADME, cell-free
[12] = target: T3, Muscarinic acetylcholine receptor M2 (Homo sapiens, UniProt P08172); assay: Positive allosteric modulation of human M2
T3 sequence (P08172 whole entry): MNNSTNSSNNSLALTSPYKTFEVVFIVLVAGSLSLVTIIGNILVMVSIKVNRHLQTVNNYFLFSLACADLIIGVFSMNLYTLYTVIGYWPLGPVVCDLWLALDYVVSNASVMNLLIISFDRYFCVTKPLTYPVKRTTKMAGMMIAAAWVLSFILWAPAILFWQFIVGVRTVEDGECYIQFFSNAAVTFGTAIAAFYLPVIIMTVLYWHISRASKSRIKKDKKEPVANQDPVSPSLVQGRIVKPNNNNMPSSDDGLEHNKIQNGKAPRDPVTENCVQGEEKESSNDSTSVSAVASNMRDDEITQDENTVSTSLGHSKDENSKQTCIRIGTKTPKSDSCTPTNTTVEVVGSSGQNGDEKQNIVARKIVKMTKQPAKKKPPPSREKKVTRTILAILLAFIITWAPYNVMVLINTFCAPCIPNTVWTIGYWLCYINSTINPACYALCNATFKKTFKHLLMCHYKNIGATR

[13] = test system: Brain; assay: Fraction unbound in rat brain homogenate; assay type: ADME, tissue-based
[14] = target: T4, Muscarinic acetylcholine receptor M4 (Rattus norvegicus) (UniProt P08485); assay: Positive allosteric modulation of rat M4 receptor expressed in CHO cells coexpressing Gqi5 by calcium mobilization assay relative to acetylcholine; assay type: functional, cell-based
T4 sequence (whole entry): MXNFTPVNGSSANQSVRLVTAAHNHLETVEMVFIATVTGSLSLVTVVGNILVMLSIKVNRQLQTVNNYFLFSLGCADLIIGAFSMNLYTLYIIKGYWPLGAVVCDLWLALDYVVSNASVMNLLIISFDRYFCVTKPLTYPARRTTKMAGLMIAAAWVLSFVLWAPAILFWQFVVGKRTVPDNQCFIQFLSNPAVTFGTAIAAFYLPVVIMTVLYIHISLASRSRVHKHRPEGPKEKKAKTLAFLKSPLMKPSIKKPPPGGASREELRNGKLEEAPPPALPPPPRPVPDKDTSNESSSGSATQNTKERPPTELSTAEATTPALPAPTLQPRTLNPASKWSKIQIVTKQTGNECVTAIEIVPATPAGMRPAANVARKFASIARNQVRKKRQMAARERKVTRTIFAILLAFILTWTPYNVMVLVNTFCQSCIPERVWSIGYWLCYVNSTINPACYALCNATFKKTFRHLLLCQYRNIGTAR

[15] = target: Muscarinic acetylcholine receptor M3 (Homo sapiens, UniProt P20309); assay: Positive allosteric modulation of human M3
[16] = target: T5, Muscarinic acetylcholine receptor M4 (Rattus norvegicus, UniProt P08485); assay: Positive allosteric modulation of rat M4 receptor expressed in CHO cells coexpressing Gqi5 by calcium mobilization assay; assay type: functional, cell-based
T5 sequence (P08485 whole entry): T4 sequence (whole entry)

[17] = target: T6, Muscarinic acetylcholine receptor M5 (Homo sapiens, UniProt P08912); assay: Positive allosteric modulation of human M5 receptor expressed in CHOK1 cells by calcium mobilization assay; assay type: functional, cell-based, CHO-K1
T6 sequence (P08912 whole entry): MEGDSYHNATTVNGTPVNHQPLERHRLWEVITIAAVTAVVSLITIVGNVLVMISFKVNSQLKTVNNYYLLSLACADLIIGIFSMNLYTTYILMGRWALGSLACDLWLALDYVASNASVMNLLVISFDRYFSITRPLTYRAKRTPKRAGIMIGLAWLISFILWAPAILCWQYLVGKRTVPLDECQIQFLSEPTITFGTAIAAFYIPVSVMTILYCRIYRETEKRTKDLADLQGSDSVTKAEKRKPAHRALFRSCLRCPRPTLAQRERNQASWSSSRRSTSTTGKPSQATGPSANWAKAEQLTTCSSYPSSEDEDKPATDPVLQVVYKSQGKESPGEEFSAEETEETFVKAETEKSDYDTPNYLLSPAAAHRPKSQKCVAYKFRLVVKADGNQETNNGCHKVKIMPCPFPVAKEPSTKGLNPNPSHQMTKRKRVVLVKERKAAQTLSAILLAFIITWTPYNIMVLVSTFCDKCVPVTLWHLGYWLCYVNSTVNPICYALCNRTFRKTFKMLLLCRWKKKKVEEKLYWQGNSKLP

[18] = target: T7, Muscarinic acetylcholine receptor M1 (Homo sapiens, UniProt P11229); assay: Positive allosteric modulation of human M1 receptor expressed in CHOK1 cells by calcium mobilization assay
T7 sequence (P11229 whole entry): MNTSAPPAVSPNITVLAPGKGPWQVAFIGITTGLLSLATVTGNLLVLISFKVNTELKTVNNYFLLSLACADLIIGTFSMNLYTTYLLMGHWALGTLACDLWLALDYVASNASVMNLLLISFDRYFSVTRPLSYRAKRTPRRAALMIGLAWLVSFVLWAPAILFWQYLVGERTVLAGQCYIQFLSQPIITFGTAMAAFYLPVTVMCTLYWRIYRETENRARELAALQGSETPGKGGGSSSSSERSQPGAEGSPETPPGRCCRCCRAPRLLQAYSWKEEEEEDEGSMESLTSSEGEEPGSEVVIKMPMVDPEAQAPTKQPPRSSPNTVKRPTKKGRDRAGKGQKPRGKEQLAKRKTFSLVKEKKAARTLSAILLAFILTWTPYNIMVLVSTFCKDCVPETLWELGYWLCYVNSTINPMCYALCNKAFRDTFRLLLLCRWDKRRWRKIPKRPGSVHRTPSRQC

Muscarinic acetylcholine receptor M3, sequence (P20309 whole entry): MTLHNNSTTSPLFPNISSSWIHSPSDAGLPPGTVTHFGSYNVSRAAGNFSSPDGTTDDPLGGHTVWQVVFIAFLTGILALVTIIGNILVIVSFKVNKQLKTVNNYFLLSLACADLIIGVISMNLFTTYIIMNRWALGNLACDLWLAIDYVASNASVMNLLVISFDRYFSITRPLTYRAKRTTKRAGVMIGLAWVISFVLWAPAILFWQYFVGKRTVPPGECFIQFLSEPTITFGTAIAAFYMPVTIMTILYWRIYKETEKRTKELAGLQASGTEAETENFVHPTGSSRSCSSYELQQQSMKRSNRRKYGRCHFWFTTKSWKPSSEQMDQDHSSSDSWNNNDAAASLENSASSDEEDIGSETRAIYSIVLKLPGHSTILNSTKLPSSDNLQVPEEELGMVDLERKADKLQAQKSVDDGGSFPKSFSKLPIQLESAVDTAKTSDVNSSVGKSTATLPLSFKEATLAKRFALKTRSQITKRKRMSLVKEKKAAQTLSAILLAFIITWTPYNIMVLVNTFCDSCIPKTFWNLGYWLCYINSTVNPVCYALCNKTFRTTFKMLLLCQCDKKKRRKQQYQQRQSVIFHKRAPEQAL

| SMILES | Kp [1] | K(p,uu,brain) [2] | EC50 [3] | %max [4] | also measured |
| --- | --- | --- | --- | --- | --- |
| Cc1ccc(OC2CCN(c3cc(C)nc4ccc(F)cc34)CC2)cn1 | 21.4 | 18.2 | 0.69 µM | 64% | – |
| Cc1sc2ncnc(N3CCC(C(=O)N4CCSCC4)CC3)c2c1C | – | – | 0.82 µM | 75% | – |
| Cc1sc2ncnc(N3CCC(C(N)=O)CC3)c2c1C | – | – | > 10 µM | 25% | – |
| Cc1ncc(OC2CCN(c3ncnc4sc(C)c(C)c34)CC2)cn1 | 1.77 | 0.65 | 4.4 µM | 60% | – |
| Cc1sc2ncnc(N3CCC(Oc4ccc(F)nc4)CC3)c2c1C | 2.8 | 0.34 | 1.8 µM | 68% | – |
| Cc1ccc(OC2CCN(c3ncnc4sc(C)c(C)c34)CC2)cn1 | 1.16 | 0.74 | 0.6 µM | 65% | Drug metabolism [5]: metabolite_detected; Drug metabolism [6]: metabolite_detected |
| Cc1sc2ncnc(N3CCC(C(=O)N4CCCC4)CC3)c2c1C | 0.45 | 0.45 | 1.1 µM | 68% | Fu [7]: 0.06; Fu [8]: 0.04 |
| CNC(=O)c1ccc(NC(=O)C2CCN(c3ncnc4sc(C)c(C)c34)CC2)cc1 | – | – | 0.57 µM | 70% | – |
| Cc1sc2ncnc(N3CCC(C(=O)N4CC[C@H](F)C4)CC3)c2c1C | 0.17 | 0.12 | 0.97 µM | 79% | Fu [7]: 0.05; Fu [8]: 0.12 |
| Cc1sc2ncnc(N3CCC(C(=O)NCc4ccc(S(N)(=O)=O)cc4)CC3)c2c1C | – | – | 2.3 µM | 67% | – |
| Cc1sc2ncnc(N3CCC(C(=O)Nc4ccc(S(C)(=O)=O)cc4)CC3)c2c1C | – | – | 0.85 µM | 62% | – |
| Cc1ccc2ncnc(N3CCC(Oc4ccc(C)nc4)CC3)c2c1 | 0.94 | 0.62 | 1.2 µM | 49% | – |
| Cc1sc2ncnc(N3CCC(C(=O)Nc4ccc(C(N)=O)cc4)CC3)c2c1C | – | – | 0.39 µM | 56% | – |
| Cc1sc2ncnc(N3CCC(C(=O)Nc4ccc(N5CCNC5=O)cc4)CC3)c2c1C | – | – | 6.2 µM | 40% | – |
| CCCCN(c1ccc(C)nc1)C1CCN(c2ncnc3sc(C)c(C)c23)CC1 | – | – | – | – | Kp at 0.25 h [1]: 0.2; Fu [7]: > 0.1; IC50 [9]: 1.5 µM; Activity [10]: 8.7%; fraction unbound [11]: > 0.1 |
| Cc1sc2ncnc(N3CCC(C(=O)N4CCOCC4)CC3)c2c1C | – | – | 1.7 µM | 65% | – |
| Cc1sc2ncnc(N3CCC(C(=O)N4CCCc5cc(S(C)(=O)=O)ccc54)CC3)c2c1C | – | – | 0.96 µM | 69% | – |
| Cc1ccc(OC2CCN(c3ncnc4ccc(F)cc34)CC2)cn1 | 11.1 | > 10 | 0.6 µM | 62% | EC50 [12]: > 10 µM; Fu [13]: 0.03; %max [14]: 57%; EC50 [15]: > 10 µM; Fu [7]: 0.16; EC50 [16]: 0.95 µM; Fu [8]: 0.02; EC50 [17]: > 10 µM; EC50 [18]: > 10 µM |
| Cc1sc2ncnc(N3CCC(C(=O)N4CCCC(F)(F)C4)CC3)c2c1C | – | – | 1.9 µM | 60% | – |
| Cc1sc2ncnc(N3CCC(Oc4ccc5c(c4)CCO5)CC3)c2c1C | 1.25 | 1.38 | 2.3 µM | 74% | – |
| Cc1sc2ncnc(N3CCC(C(=O)Nc4ccc(F)cc4Cl)CC3)c2c1C | – | – | 1.6 µM | 55% | – |
| Cc1sc2ncnc(N3CCC(C(=O)Nc4cc(Cl)ccc4Cl)CC3)c2c1C | – | – | 3.8 µM | 69% | – |
| Cc1sc2ncnc(N3CCC(Oc4ccc(Cl)nc4)CC3)c2c1C | 2.56 | 0.17 | 4.3 µM | 64% | – |
| CCCN(c1ccc(C)nc1)C1CCN(c2ncnc3sc(C)c(C)c23)CC1 | – | – | – | – | Kp at 0.25 h [1]: 0.2; Fu [7]: > 0.1; IC50 [9]: 2.4 µM; Activity [10]: 9.3%; fraction unbound [11]: > 0.1 |
| Cc1ccc(OC2CCN(c3nc(C)nn4ccc(C)c34)CC2)cn1 | 1.42 | 1.95 | 1.1 µM | 58% | – |
